One test deals with AKT1 (Homo sapiens, UniProt P31749). Description: Biochemical assay for inhibitors of AKT1 kinase activity (33P trans-phosphorylation, Dowex resin). On the set-up: made in house. Particulars: 5 nM enzyme, 132 microM ATP, 30 microM peptide substrate; read-out: AKT1 IC50 (µM) Biochem assay. As to the method:
(§1) The N-terminal GST fusion proteins used for the assays were prepared according to the methods described in Kumar, C. C. Biochem. Biophys. ACTA 2001, 1526, 257-268, and in Alessi, D. R.. Biochem. J. 1998 331, 299-308.
The inhibitory activity of putative kinase inhibitors and the potency of selected compounds were determined using a trans-phosphorylation assay.
A specific substrate was incubated with the kinase in appropriate buffer conditions in the presence of ATP traced with ^33P-γ-ATP (gamma phosphate-labeled, Redivue™ Code Number AH9968, 1000-3000Ci/mmole, Amersham Biosciences Piscataway, NJ, USA), optimal cofactors and test compound.
At the end of the phosphorylation reaction, more than 98% cold and radioactive ATP were captured by an excess of Dowex ion exchange resin. The resin was allowed to settle to the bottom of reaction wells by gravity. Supernatant, containing substrate peptide, was subsequently withdrawn and transferred into a counting plate, and radioactivity (corresponding to phosphate incorporated into peptide) was evaluated by β-counting.
Kinase buffer was composed of 50 mM TRIS pH 7.5 containing10 mM MgCl2, 1 mM DTT, 3 microM Na3VO4, and 0.2 mg/mL BSA. 3X KB is buffer of the same composition and pH as KB, but with three times the concentration of each component. iii.Assay conditions (final concentrations) for AKT1.
The kinase assay was run with a final enzyme concentration of 5 nM, in the presence of 132 microM ATP, 0.88 nM ^33P-γ-ATP and 30 microM substrate, a carboxy-terminally biotinylated peptide of the following sequence: ARKRERTYSFGHHA-biotin. The peptide was obtained in batches of >95% peptide purity from PRIMM labs Inc. (Boston MA, USA).
The "test" mixture of 15 microL consisting of: • 1) 5 µl/well of 3x Enzyme mix (done in Kinase Buffer 3X), • 2) 5 µl/well of 3x substrate and ATP mix (done in ddH2O), together with ^33P-γ-ATP, • 3) 5 µl/well of 3x test compounds (diluted into ddH2O - 3% DMSO).
For % inhibition studies, dilution plates at 1 mM, 10 microM and 100 microM were prepared in 100% DMSO, then diluted to 3X final desired concentration (30, 3 and 0.3 microM) in ddH2O, 3% DMSO. A Multimek 96 (Beckman Coulter, Inc. 4300 N. Harbor Boulevard, P.O. Box 3100 Fullerton, CA 92834-3100 USA) was used for compound pipetting into test plates.
For IC50 determination, starting solutions of 30 microM compound in 3% DMSO were derived from 1 mM/100% DMSO stock solutions. These 30 microM starting solutions were used for generation of a further 9 serial 1/3 dilutions in ddH20, 3% DMSO, so as to generate a 10-point dilution curve at 3X the final assay concentration. Serial dilution was conducted in 96-well plates using a Biomek 2000 (Beckman Coulter) system. Dilution curves of 7 compounds/plate were prepared, and each plate also included a 10-point dilution curve of Staurosporine, as well as several negative and positive control wells.
384-well plates, V bottom (test plates) are prepared with 5 µl of the compound dilution (3X) and then placed onto a PlateTrak 12 robotized station (Perkin Elmer; the robot has one 384-tips pipetting head for starting the assay plus one 96-tips head for dispensing the resin) together with one reservoir for the Enzyme mix (3X) and one for the ATP mix (3X).
At the start of the run, the robot aspirates 5 µl of ATP mix, makes an air gap inside the tips (3 µl) and aspirates 5 µl of AKT mix. The following dispensation into the plates allows the kinase reaction to start upon 3 cycles of mixing, done by the robot itself.
The robot incubates the plates for 60 minutes at room temperature, and then stops the reaction by pipetting 70 µl of dowex resin suspension into the reaction mix. Three cycles of mixing are done immediately after the addition of the resin.
Another mixing cycle is performed after all the plates are stopped, this time using normal tips: the plates are then allowed to rest for about one hour in order to maximize ATP capture. […]

Another test concerns the target T1, AKT2 (Homo sapiens, UniProt P31751).
T1 construct: made in house
Put plainly: Biochemical assay for inhibitors of AKT2 kinase activity (33P trans-phosphorylation, Dowex resin). Particulars: 10 nM enzyme, 396 microM ATP, 8.5 microM peptide substrate; read-out: AKT2 IC50 (µM) Biochem assay. The protocol:
as §1
The in vitro kinase inhibition assay was conducted in the same way as described for AKT1. The kinase assay was run with a final enzyme concentration of 10 nM, in the presence of 396 microM ATP, 0.88 nM ^33P-γ-ATP and 8.5 microM substrate, a carboxy-terminally biotinylated peptide of the following sequence: ARKRERTYSFGHHA-biotin. The peptide was obtained in batches of >95% peptide purity from PRIMM labs Inc. (Boston MA, USA).

A further test addresses AKT3 (Homo sapiens, UniProt Q9Y243). Description: Biochemical assay for inhibitors of AKT3 kinase activity (33P trans-phosphorylation, Dowex resin). Particulars: 1 nM enzyme, 180 microM ATP, 28.5 microM peptide substrate; read-out: AKT3 IC50 (µM) Biochem assay. The protocol:
as §1
The in vitro kinase inhibition assay was conducted in the same way as described for AKT1. The kinase assay was run with a final enzyme concentration of 1 nM, in the presence of 180 microM ATP, 0.88 nM ^33P-γ-ATP and 28.5 microM substrate, a carboxy-terminally biotinylated peptide of the following sequence: ARKRERTYSFGHHA-biotin. The peptide was obtained in batches of >95% peptide purity from PRIMM labs Inc. (Boston MA, USA).

Sequence of AKT3 (Q9Y243 2-479): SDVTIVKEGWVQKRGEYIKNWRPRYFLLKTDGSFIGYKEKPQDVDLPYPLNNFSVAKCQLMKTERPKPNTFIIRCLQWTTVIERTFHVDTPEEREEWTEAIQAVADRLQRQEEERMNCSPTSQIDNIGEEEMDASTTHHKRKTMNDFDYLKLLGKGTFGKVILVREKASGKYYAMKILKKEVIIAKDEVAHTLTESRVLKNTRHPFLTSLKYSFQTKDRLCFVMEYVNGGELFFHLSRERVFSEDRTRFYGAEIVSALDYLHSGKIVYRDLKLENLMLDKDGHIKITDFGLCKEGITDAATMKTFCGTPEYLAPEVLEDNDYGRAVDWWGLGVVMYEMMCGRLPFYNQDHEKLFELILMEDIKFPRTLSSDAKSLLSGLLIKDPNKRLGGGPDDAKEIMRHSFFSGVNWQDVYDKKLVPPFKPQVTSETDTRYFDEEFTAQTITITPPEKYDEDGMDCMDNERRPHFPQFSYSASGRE
T1 sequence (P31751 whole entry, species assumed): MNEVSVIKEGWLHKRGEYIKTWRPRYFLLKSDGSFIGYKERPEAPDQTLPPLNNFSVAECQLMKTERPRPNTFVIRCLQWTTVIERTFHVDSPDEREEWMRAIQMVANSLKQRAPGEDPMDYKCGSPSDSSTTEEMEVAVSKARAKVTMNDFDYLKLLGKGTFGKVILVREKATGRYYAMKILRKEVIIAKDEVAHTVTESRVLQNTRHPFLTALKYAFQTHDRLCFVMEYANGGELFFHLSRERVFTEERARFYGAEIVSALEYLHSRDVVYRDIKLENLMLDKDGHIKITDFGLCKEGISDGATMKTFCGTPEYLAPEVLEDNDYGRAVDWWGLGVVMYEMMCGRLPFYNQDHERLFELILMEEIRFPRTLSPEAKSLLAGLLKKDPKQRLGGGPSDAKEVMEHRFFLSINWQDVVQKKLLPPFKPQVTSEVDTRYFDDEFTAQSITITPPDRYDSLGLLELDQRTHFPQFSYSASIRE
Sequence of AKT1 (P31749 whole entry, the tested form may be a part): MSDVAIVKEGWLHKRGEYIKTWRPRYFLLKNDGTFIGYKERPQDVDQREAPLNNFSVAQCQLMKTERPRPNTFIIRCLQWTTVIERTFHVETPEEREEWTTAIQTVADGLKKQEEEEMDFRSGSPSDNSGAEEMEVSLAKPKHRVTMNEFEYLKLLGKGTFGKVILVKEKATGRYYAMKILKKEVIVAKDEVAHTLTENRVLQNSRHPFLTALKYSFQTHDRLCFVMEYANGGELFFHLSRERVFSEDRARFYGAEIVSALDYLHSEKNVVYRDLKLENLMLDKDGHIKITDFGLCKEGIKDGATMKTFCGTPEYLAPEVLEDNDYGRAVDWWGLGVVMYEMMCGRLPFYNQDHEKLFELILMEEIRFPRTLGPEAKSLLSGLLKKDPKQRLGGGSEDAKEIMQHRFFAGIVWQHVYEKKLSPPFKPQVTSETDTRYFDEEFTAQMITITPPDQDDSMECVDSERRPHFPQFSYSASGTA

For the compound `O=C(N[C@H](CN1CCCC1)c1ccccc1)c1cc2c3c(nccc3c1)NC2` [Cpd. 8, N-[(1S)-1-phenyl-2-pyrrolidin-1-ylethyl]-1,2-dihydropyrrolo[4,3,2-ij]isoquinoline-4-carboxamide], the figures for the IC50 at AKT1, at AKT2 and on AKT3 were 0.431 µM, 1.86 µM and 1.06 µM, respectively.
`NC[C@H](Cc1ccccc1)NC(=O)c1cc2c3c(nccc3c1)NC2` [Cpd. 7, N-[(1S)-2-amino-1-benzylethyl]-1,2-dihydropyrrolo[4,3,2-ij]isoquinoline-4-carboxamide]: the results for the half-maximal inhibitory concentration (IC50) on AKT1, at AKT2 and on AKT3 were 0.132 µM, 0.797 µM and 0.717 µM, respectively.

The values above are taken from patent EP2002836B1, “Cyclocondensed azaindoles active as kinase inhibitors” (Nerviano Medical Sciences S.r.l., priority 2007, dated 2008).
